Source: paper PMC10054634, “Chemical Constituents of Thesium chinense Turcz and Their In Vitro Antioxidant, Anti-Inflammatory and Cytotoxic Activities” (Molecules, 2023)
“Also recorded” adds a separate entry of the source.

How the values were obtained:
[1] = DPPH radical scavenging assay; settings: for antioxidant activity on DPPH radical scavenging (in words): compared with positive control ascorbic acid; for SC50: concentration required for 50% reduction of DPPH radicals, 37 °C, 30 min, 517 nm, nc = SC50 cannot be calculated due to weak or no related activities
Protocol: The 2, 2-diphenyl-1-picrylhydrazyl (Aldrich Chem. Co. Ltd, Shanghai, China) radical scavenging activity assay was performed according to the previously published method with some modification. Test samples were dissolved in MeOH to six different concentrations ranging from 3.125 to 100 μM. Then, 100 μL of 100 μM DPPH in MeOH were mixed with 100 μL of samples at different concentrations in the wells of 96-well plates. The reaction mixtures were incubated in the dark at 37 °C for 30 min and then measured at 517 nm. Ascorbic acid was used as the positive control. The scavenging activity (SC) was estimated as follows: % SC = [1 − (Asample − Ablank)/Acontrol] ×100. Asample was the equivalent mixture of test sample and DPPH solution. Ablank was the equivalent mixture of test sample and MeOH solution. Acontrol was the equivalent mixture of DPPH and MeOH solution. The SC50 values were used to evaluate the antioxidant activities of isolated compounds. The experiments were performed in triplicate, and the data were expressed as the means ± SD of three independent experiments.

NCI-H292 = test: Cytotoxic assay (CCK-8), NCI-H292; type: cell-based, human; settings: Homo sapiens, NCI-H292, 48 h, mean ± SD (n = 3)
Protocol: (§1) Four human cancer cell lines, A549, NCI-H292, SiHa and MKN45, were purchased from the Cell Bank of the Chinese Academy of Sciences (Shanghai, China). […] Cisplatin (Abmole Bioscience, Shanghai, China) was used as positive control.
(§2) A total of 180 μL of cancer cells (5 × 10^3) were plated in each well of 96-well plates and cultured for 24 h, then the supernatant of the culture was discarded and 180 μL complete medium with different concentrations of test samples were added into triplicate wells of each cell line, respectively. Thereafter, A549, NCI-H292, SiHa and MKN45 were incubated for 48 h, respectively. The cell viability was evaluated by Cell Counting Kit-8 (CCK-8, Best Bio., Beijing, China), respectively. The experiments were performed in triplicate, and the data were expressed as the means ± SD of three independent experiments.

[2] = Cytotoxicity in RAW 264.7 cells (CCK-8); settings: mouse
Protocol: The cell viability was determined by the CCK-8 assay method. The cytotoxicity was calculated from the plotted results using untreated cells at 100%.

MKN45 = test: Cytotoxic assay (CCK-8), MKN45; type: cell-based, human; settings: Homo sapiens, MKN-45, MKN45, 48 h, mean ± SD (n = 3)
Protocol: as §1, §2

[3] = system: NO production in LPS-activated RAW 264.7 cells; test: Inhibition of NO production in LPS-activated RAW 264.7 cells (Griess reaction); type: cell-based; settings: Mus musculus, RAW264.7; RAW 264.7, 1 μg/mL LPS, 24 h; mean ± SD (n = 3); read-out: IC50 (NO inhibitory activity)
Protocol: The macrophage RAW 264.7 cells were obtained from the Cell Bank of the Chinese Academy of Sciences (Shanghai, China). A total of 180 μL of RAW 264.7 cells (1 × 10^4) were plated respectively in each well of 96-well plate and cultured for 24 h, then the supernatant of the culture was discarded and 180 μL complete medium with 1 μg/mL LPS and different concentrations of test samples were added into triplicate wells for 24 h. The inhibition effects on LPS-stimulated NO production was evaluated by the Griess reaction assay. The experiments were performed in triplicate, and the data were expressed as the means ± SD of three independent experiments.

A549 = test: Cytotoxic assay (CCK-8), A549; type: cell-based, human; settings: Homo sapiens, A549, 48 h, mean ± SD (n = 3)
Protocol: as §1, §2

SiHa = test: Cytotoxic assay (CCK-8), SiHa; type: cell-based, human; settings: Homo sapiens, 48 h, mean ± SD (n = 3)
Protocol: as §1, §2

[4] = system: LPS-induced acute lung injury; parameters: method as in PMID 34417573, PMID 34038447; settings: mice; cited from earlier work

Row | IC50 [3] | IC50 (RAW 264.7 cells) | Compound | antioxidant activity on DPPH radical scavenging (in words) [1] | SC50 [1] | IC50 (NCI-H292) | IC50 [2] | IC50 (MKN45) | IC50 (A549) | IC50 (SiHa) | anti-inflammatory effects against LPS-induced acute lung injury [4]
1 | > 200 µM | – | COc1cc([C@@H](OC)[C@H](O)CO)ccc1O [Compound 26, alatusol D] | weak antioxidant activities | 284.0 ± 16.5 µM | > 200 µM | > 200 µM | > 200 µM | > 200 µM | > 200 µM | –
2 | – | > 200 µM | scopolin [Compound 27] | – | – | – | – | – | – | – | –

The remaining lines, values behind:

Row | Compound | IC50 [3] | IC50 (RAW 264.7 cells) | antioxidant activity on DPPH radical scavenging (in words) [1] | SC50 [1] | IC50 (NCI-H292) | IC50 [2] | IC50 (MKN45) | IC50 (A549) | IC50 (SiHa) | anti-inflammatory effects against LPS-induced acute lung injury [4]
3 | COc1cc(C(O)C(CO)Oc2ccc(C(O)C(O)CO)cc2OC)ccc1O (stereo not drawn) [Compound 18, 1-(4-hydroxy-3-methoxy)-phenyl-2-[4-(1,2,3-trihydroxypropyl)-2-methoxy]-phenoxy-1,3-propan-diol] | > 200 µM | – | weak antioxidant activities; also recorded: moderate activity | 127.9 ± 15.4 µM | > 200 µM | > 200 µM | > 200 µM | > 200 µM | > 200 µM | –
4 | COc1cc([C@@H]2OC[C@@H](Cc3ccc(O[C@@H]4O[C@H](CO)[C@@H](O)[C@H](O)[C@H]4O)c(OC)c3)[C@H]2CO)ccc1O [Compound 19, lariciresinol-4-O-β-D-glucoside] | > 200 µM | – | significant scavenging activity | 48.8 ± 2.9 µM | > 200 µM | > 200 µM | > 200 µM | > 200 µM | > 200 µM | –
5 | CCOC(=O)/C=C/c1ccc(O)c(OC)c1 [Compound 21, 3-O-ethyl ferulate] | 28.6 ± 3 µM | – | – | 50.8 ± 1.4 µM | > 200 µM | > 200 µM | > 200 µM | > 200 µM | > 200 µM | obvious anti-inflammatory effects
